Laboratory results taken from patent US8716292B2, “Riminophenazines with 2-(heteroaryl)amino substituents and their anti-microbial activity” (priority 2010, dated 2014).
Converted amounts (≈) assume the structure as drawn.

Tested on: Mycobacterium tuberculosis H37Rv strains
Test: In vitro assay for antimicrobial susceptibility (microplate Alamar blue MIC)
Format: cell-based
Conditions: Mycobacterium tuberculosis, H37RV, 7H9, Alamar blue, inhibition ≧90%; read-out: MIC (μg/mL) against H37Rv

| Structure (SMILES) | MIC |
| --- | --- |
| CC(C)/N=c1\cc2n(-c3ccc(Cl)cc3)c3ccccc3nc-2cc1Nc1ncccc1C#N [TBI-1075, 5-(4-Chlorophenyl)-3-(1-methylethyl)imino-2-(3-cyano-2-pyridyl)amino-3,5-dihydrophenazine] | 0.016 µg/mL (≈ 0.0344 µM) |
| CC(C)/N=c1\cc2n(-c3ccc(Cl)cc3)c3ccccc3nc-2cc1Nc1ccccn1 [TBI-1076, 5-(4-Chlorophenyl)-3-(1-methylethyl)imino-2-(2-pyridyl)amino-3,5-dihydrophenazine] | 0.014 µg/mL (≈ 0.0318 µM) |
| CC(C)/N=c1\cc2n(-c3ccc(Cl)cc3)c3ccccc3nc-2cc1Nc1cnccn1 [TBI-1077] | < 0.0075 µg/mL |
| COC1CCC(/N=c2\cc3n(-c4ccc(F)cc4)c4ccccc4nc-3cc2Nc2ccccn2)CC1 (centres unmarked) [TBI-1078, 5-(4-Fluorophenyl)-3-(4-methoxycyclohexyl)imino-2-(2-pyridyl)amino-3,5-dihydrophenazine] | 0.028 µg/mL (≈ 0.0567 µM) |
| COC1CCC(/N=c2\cc3n(-c4ccc(F)cc4)c4ccccc4nc-3cc2Nc2cnccn2)CC1 (centres unmarked) [TBI-1079, 5-(4-Fluorophenyl)-3-(4-methoxycyclohexyl)imino-2-(pyrazin-2-yl)amino-3,5-dihydrophenazine] | 0.037 µg/mL (≈ 0.0748 µM) |
| COC1CCC(/N=c2\cc3n(-c4ccc(F)cc4)c4ccccc4nc-3cc2Nc2ncccn2)CC1 (centres unmarked) [TBI-1080, 5-(4-Fluorophenyl)-3-(4-methoxycyclohexyl)imino-2-(pyrimidin-2-yl)amino-3,5-dihydrophenazine] | 0.029 µg/mL (≈ 0.0586 µM) |
| COC1CCC(/N=c2\cc3n(-c4ccc(F)cc4)c4ccccc4nc-3cc2Nc2ncccc2C#N)CC1 (centres unmarked) [TBI-1082, 5-(4-Fluorophenyl)-3-(4-methoxycyclohexyl)imino-2-(3-cyano-2-pyridyl)amino-3,5-dihydrophenazine] | 0.029 µg/mL (≈ 0.0559 µM) |
| COC1CCC(/N=c2\cc3n(-c4ccc(F)cc4)c4ccccc4nc-3cc2Nc2ncccc2[N+](=O)[O-])CC1 (centres unmarked) [TBI-1083, 5-(4-Fluorophenyl)-3-(4-methoxycyclohexyl)imino-2-(3-nitro-2-pyridyl)amino-3,5-dihydrophenazine] | 5.81 µg/mL (≈ 10.8 µM) |
| Fc1ccc(-n2c3c/c(=N\C4CCOCC4)c(Nc4ncccn4)cc-3nc3ccccc32)cc1 [TBI-1084, 5-(4-Fluorophenyl)-3-(4-tetrahydropyranyl)imino-2-(pyrimidin-2-yl)amino-3,5-dihydrophenazine] | 0.043 µg/mL (≈ 0.0922 µM) |
| Fc1ccc(-n2c3c/c(=N\C4CCOCC4)c(Nc4cnccn4)cc-3nc3ccccc32)cc1 [TBI-1085, 5-(4-Fluorophenyl)-3-(4-tetrahydropyranyl)imino-2-(pyrazin-2-yl)amino-3,5-dihydrophenazine] | 0.038 µg/mL (≈ 0.0815 µM) |
| N#Cc1cccnc1Nc1cc2nc3ccccc3n(-c3ccc(F)cc3)c-2c/c1=N\C1CCOCC1 [TBI-1086, 5-(4-Fluorophenyl)-3-(4-tetrahydropyranyl)imino-2-(3-cyano-2-pyridyl)amino-3,5-dihydrophenazine] | 0.04 µg/mL (≈ 0.0815 µM) |
| Fc1ccc(-n2c3c/c(=N\C4CCOCC4)c(Nc4ccccn4)cc-3nc3ccccc32)cc1 [TBI-1087, 5-(4-Fluorophenyl)-3-(4-tetrahydropyranyl)imino-2-(2-pyridyl)amino-3,5-dihydrophenazine] | 0.028 µg/mL (≈ 0.0601 µM) |
| O=[N+]([O-])c1cccnc1Nc1cc2nc3ccccc3n(-c3ccc(F)cc3)c-2c/c1=N\C1CCOCC1 [TBI-1088, 5-(4-Fluorophenyl)-3-(4-tetrahydropyranyl)imino-2-(3-nitro-2-pyridyl)amino-3,5-dihydrophenazine] | 0.028 µg/mL (≈ 0.0548 µM) |
| COC1CCC(/N=c2\cc3n(-c4ccc(Cl)cc4)c4ccccc4nc-3cc2Nc2ncccn2)CC1 (centres unmarked) [TBI-1090, 5-(4-Chlorophenyl)-3-(4-methoxycyclohexyl)imino-2-(pyrimidin-2-yl)amino-3,5-dihydrophenazine] | < 0.0075 µg/mL |
| COC1CCC(/N=c2\cc3n(-c4ccc(Cl)cc4)c4ccccc4nc-3cc2Nc2cnccn2)CC1 (centres unmarked) [TBI-1091, 5-(4-Chlorophenyl)-3-(4-methoxycyclohexyl)imino-2-(pyrazin-2-yl)amino-3,5-dihydrophenazine] | 0.018 µg/mL (≈ 0.0352 µM) |
| COC1CCC(/N=c2\cc3n(-c4ccc(F)c(F)c4)c4ccccc4nc-3cc2Nc2ncccn2)CC1 (centres unmarked) [TBI-1433, 5-(3,4-Difluorophenyl)-3-(4-methoxycyclohexyl)imino-2-(pyrimidin-2-yl)amino-3,5-dihydrophenazine] | 0.086 µg/mL (≈ 0.168 µM) |
| CC(C)/N=c1\cc2n(-c3ccc(F)c(F)c3)c3ccccc3nc-2cc1Nc1ccccn1 [TBI-1436, 5-(3,4-Difluorophenyl)-3-(1-methylethyl)imino-2-(2-pyridyl)amino-3,5-dihydrophenazine] | 0.028 µg/mL (≈ 0.0634 µM) |
| CC(C)/N=c1\cc2n(-c3ccc(F)c(F)c3)c3ccccc3nc-2cc1Nc1ncccn1 [TBI-1437, 5-(3,4-Difluorophenyl)-3-(1-methylethyl)imino-2-(pyrimidin-2-yl)amino-3,5-dihydrophenazine] | 0.02 µg/mL (≈ 0.0452 µM) |
| CC(C)/N=c1\cc2n(-c3ccc(F)c(F)c3)c3ccccc3nc-2cc1Nc1ncccc1C#N [TBI-1438, 5-(3,4-Difluorophenyl)-3-(1-methylethyl)imino-2-(3-cyano-2-pyridyl)amino-3,5-dihydrophenazine] | 0.053 µg/mL (≈ 0.114 µM) |
| COC1CCC(/N=c2\cc3n(-c4ccc(F)c(F)c4)c4ccccc4nc-3cc2Nc2ccc([N+](=O)[O-])cn2)CC1 (centres unmarked) [TBI-1444, 5-(3,4-Difluorophenyl)-3-(4-methoxycyclohexyl)imino-2-(5-nitro-2-pyridyl)amino-3,5-dihydrophenazine] | 0.114 µg/mL (≈ 0.205 µM) |
| COC1CCC(/N=c2\cc3n(-c4ccc(F)c(F)c4)c4ccccc4nc-3cc2Nc2cnccn2)CC1 (centres unmarked) [TBI-1445, 5-(3,4-Difluorophenyl)-3-(4-methoxycyclohexyl)imino-2-(pyrazin-2-yl)amino-3,5-dihydrophenazine] | 0.056 µg/mL (≈ 0.109 µM) |
| CC(C)/N=c1\cc2n(-c3ccc(F)c(F)c3)c3ccccc3nc-2cc1Nc1cnccn1 [TBI-1446, 5-(3,4-Difluorophenyl)-3-(1-methylethyl)imino-2-(pyrazin-2-yl)amino-3,5-dihydrophenazine] | 0.03 µg/mL (≈ 0.0678 µM) |

Same assay, conditions: Mycobacterium tuberculosis, H37RV, in vitro, Mycobacterium tuberculosis H37Rv strains; read-out: MIC (μg/mL) against H37Rv

| Structure (SMILES) | MIC |
| --- | --- |
| COc1nc(C)ccc1Nc1cc2nc3ccccc3n(-c3ccc(F)cc3)c-2c/c1=N\C(C)C [TBI-1092, 5-(4-Fluorophenyl)-3-(1-methylethyl)imino-2-(2-methoxy-6-methyl-3-pyridyl)amino-3,5-dihydrophenazine] | 0.424 µg/mL (≈ 0.907 µM) |
| COc1ncccc1Nc1cc2nc3ccccc3n(-c3ccc(NC(C)=O)cc3)c-2c/c1=N\C(C)C [TBI-1220, 5-(4-Acetamidophenyl)-3-(1-methylethyl)imino-2-(2-methoxy-3-pyridyl)amino-3,5-dihydrophenazine] | > 0.5 µg/mL |
| COc1ncccc1Nc1cc2nc3ccccc3n(-c3ccc(NC(C)=O)cc3)c-2c/c1=N\C1CC1 [TBI-1221, 5-(4-Acetamidophenyl)-3-cyclopropylimino-2-(2-methoxy-3-pyridyl)amino-3,5-dihydrophenazine] | 0.9 µg/mL (≈ 1.83 µM) |
| COc1ncccc1Nc1cc2nc3ccccc3n(-c3ccc(NC(C)=O)cc3)c-2c/c1=N\C1CCC(OC)CC1 (centres unmarked) [TBI-1222, 5-(4-Acetamidophenyl)-3-(4-methoxycyclohexyl)imino-2-(2-methoxy-3-pyridyl)amino-3,5-dihydrophenazine] | 0.925 µg/mL (≈ 1.64 µM) |
| COc1ncccc1Nc1cc2nc3ccccc3n(-c3ccc(NC(C)=O)cc3)c-2c/c1=N\C1CCCCC1 [TBI-1223, 5-(4-Acetamidophenyl)-3-cyclohexylimino-2-(2-methoxy-3-pyridyl)amino-3,5-dihydrophenazine] | 1.49 µg/mL (≈ 2.79 µM) |
| CC(=O)Nc1ccc(-n2c3c/c(=N\C(C)C)c(Nc4ccc(C)nc4)cc-3nc3ccccc32)cc1 [TBI-1228, 5-(4-Acetamidophenyl)-3-(1-methylethyl)imino-2-(6-methyl-3-pyridyl)amino-3,5-dihydrophenazine] | 2.4 µg/mL (≈ 5.03 µM) |
| COC1CCC(/N=c2\cc3n(-c4ccc(NC(C)=O)cc4)c4ccccc4nc-3cc2Nc2ccc(C)nc2)CC1 (centres unmarked) [TBI-1229] | 0.482 µg/mL (≈ 0.882 µM) |
| Fc1ccc(-n2c3c/c(=N\C4CC4)c(Nc4cccnc4)cc-3nc3ccccc32)cc1F [TBI-1429, 5-(3,4-Difluorophenyl)-3-cyclopropylimino-2-(3-pyridyl)amino-3,5-dihydrophenazine] | 0.011 µg/mL (≈ 0.025 µM) |
| COC1CCC(/N=c2\cc3n(-c4ccc(F)c(F)c4)c4ccccc4nc-3cc2Nc2cccnc2)CC1 (centres unmarked) [TBI-1430, 5-(3,4-Difluorophenyl)-3-(4-methoxycyclohexyl)imino-2-(3-pyridyl)amino-3,5-dihydrophenazine] | 0.059 µg/mL (≈ 0.115 µM) |
| Fc1ccc(-n2c3c/c(=N\C4CCOCC4)c(Nc4cccnc4)cc-3nc3ccccc32)cc1F [TBI-1432, 5-(3,4-Difluorophenyl)-3-(4-tetrahydropyranyl)imino-2-(3-pyridyl)amino-3,5-dihydrophenazine] | 0.088 µg/mL (≈ 0.182 µM) |

Same assay, conditions: in vitro, Mycobacterium tuberculosis H37Rv strains

| Structure (SMILES) | MIC (μg/mL) against H37Rv |
| --- | --- |
| COc1ncccc1Nc1cc2nc3ccccc3n(-c3ccc(F)c(F)c3)c-2c/c1=N\C1CCOCC1 [TBI-1428, 5-(3,4-Difluorophenyl)-3-(4-tetrahydropyranyl)imino-2-(2-methoxy-3-pyridyl)amino-3,5-dihydrophenazine] | 0.054 µg/mL (≈ 0.105 µM) |

Tested on: H37Rv
Test: In vivo testing: mice infected intravenously with H37Rv, lung tissue CFU counts
Design: species or system Male BALB/c mice
Conditions: 20 mg/kg, gavage 5 times weekly, lung tissue CFU, thirty days postinfection
Experimental: Male BALB/c mice (18˜20 g) were infected intravenously with 0.2 ml portions containing 1×10^5 CFU of H37Rv. One day after the infection, four mice were sacrificed and the numbers of CFU in the spleens and lungs were determined. Organs were removed and homogenized in Middlebrook 7H9 broth. To enumerate CFU, appropriate dilutions of the homogenates were plated onto Middlebrook 7H10 agar and colonies were counted after 3 to 4 weeks of incubation at 37° C. The remaining mice were allocated either to untreated groups or to various drug treated groups (six mice per group). The dose of every test compound was 20 mg/kg. The positive control groups were treated by isoniazid and clofazimine. The test compounds and clofazimine were administered by gavage 5 times weekly. Untreated mice were administered by gavage with CMC. Thirty days postinfection, both untreated and treated mice were sacrificed and lung tissue CFU counts were determined. The significance of the CFU count and organ weight difference was assessed by a two-tailed Student t test. P≦0.01 was considered significant.

| Structure (SMILES) | Log CFU (TBI treated) |
| --- | --- |
| COc1ncccc1Nc1cc2nc3ccccc3n(-c3ccc(F)cc3)c-2c/c1=N\C(C)C [TBI-1004, 5-(4-Fluorophenyl)-3-(1-methylethyl)imino-2-(2-methoxy-3-pyridyl)amino-3,5-dihydrophenazine] | 4.28 |

Same assay, conditions: Mycobacterium tuberculosis, H37RV, iv, 720 h, versus untreated control, lung tissue, thirty days postinfection, read-out: Log CFU Reduction (TBI treated)

| Structure (SMILES) | log reduction at 20 mg/kg |
| --- | --- |
| COc1ncccc1Nc1cc2nc3ccccc3n(-c3ccc(F)cc3)c-2c/c1=N\C(C)C [TBI-1004, 5-(4-Fluorophenyl)-3-(1-methylethyl)imino-2-(2-methoxy-3-pyridyl)amino-3,5-dihydrophenazine] | 4.25 |
